For experiment [1], the system named is bovine microtubule-associated protein (MAP)-rich tubulin. In kind it is biochemical. The following applies: 0.3 uM. Here is the method: Tubulin Polymerization Assays. For in vitro tubulin polymerization assays, bovine microtubule-associated protein (MAP)-rich tubulin, PEM buffer [80 mM Na-PIPES (pH 6.9), 1 mM MgCl2, and 1 mM EGTA], and GTP are purchased from Cytoskeleton (Denver, Colo.). MAP-rich tubulin (final concentration 1.5 mg/ml) is dissolved in cold PEM buffer containing 1 mM GTP (GPEM) and centrifuged at 12,000×g for 10 min at 4° C. The tubulin solution (100 μl/well) is added rapidly to wells of a low-volume, 96-well plate already containing duplicate aliquots (10 μl) of test compounds in GPEM. […] Control wells contained the same final concentration of DMSO (0.3%). After initiation of the reaction, absorbance at 340 nm is measured every minute for 60 min at 24° C. using a SpectraMax Plus plate reader (Molecular Devices, Sunnyvale, Calif.).

A further experiment deals with KBV1. Briefly: cells. In kind it is cell-based. The following applies: for inhibition at 3 µM: KB-V1, 3000 nM; for IC50: 3 days, SRB. Here is the method: (§1) Cell Survival Assay: Standard Pharmacological Test Procedure. […] Compounds are incubated with cells for 3 days.
For the next experiment, the system named is KB85. Kind of experiment: cells. In kind it is cell-based. The following applies: for inhibition at 3 µM: 3000 nM; for IC50: 3 days, SRB. Here is the method: as §1
A further experiment deals with KB cells. Kind of experiment: cells. In kind it is cell-based. The settings on record: for inhibition at 3 µM: 3000 nM; for IC50: 3 days, SRB. Here is the method:
as §1

The results in this text go back to US7390910B2, “Compounds for treating tumors” (priority 2003, dated 2008).

In the case of `CN[C@H](C(=O)N[C@H](C(=O)N(C)[C@H](/C=C/S(=O)(=O)O)C(C)C)C(C)(C)C)C(C)(C)c1ccccc1` [Example 64, N,β,β-trimethyl-L-phenylalanyl-N^1-[(1S,2E)-1-isopropyl-3-sulfoprop-2-enyl]-N^1,3-dimethyl-L-valinamide], in experiment [1], the “Tubulin Polym. % inhibition at 0.3 uM” value is reported as 86%. The inhibition – broadly, the percentage by which the read-out fell short of the control – at 3 µM with KBV1 (Homo sapiens) amounted to 0%; with KB85 it was 1%; in the experiment on KB cells (Homo sapiens, 72 h), 2%.
“N,β,β-trimethyl-L-phenylalanyl-N^1-{(1S,2E)-4-[(2S)-2-(2-phenethoxycarbonyl)pyrrolidin-1-yl]-1-isopropyl-3-methyl-4-oxobut-2-enyl}-N^1,3-dimethyl-L-valinamid [Example 37]”: the “Tubulin Polym. % inhibition at 0.3 uM” value in experiment [1] came out at 86%. For the same compound, the figures for the IC50 with KBV1, in the experiment on KB85 and with KB cells were 1.64 µM, 0.021 µM and 0.0064 µM, respectively.
For `C/C(=C\[C@H](C(C)C)N(C)C(=O)[C@@H](NC(=O)[C@@H]1CCCN1C)C(C)(C)C)C(=O)O` [Example 62, 1-methyl-L-prolyl-N^1-[(1S,2E)-3-carboxy-1-isopropylbut-2-enyl]-N^1,3-dimethyl-L-valinamide], the “Tubulin Polym. % inhibition at 0.3 uM” value in experiment [1] is listed as 65(2) %. The inhibition at 3 µM with KBV1 (Homo sapiens) is 10%; in the experiment with KB85, 26%. Also, inhibition with KB cells (Homo sapiens, KB, 72 h) was half-maximal at 2.95 µM (IC50).
Take `CN[C@H](C(=O)N[C@H](C(=O)N(C)[C@H](/C=C(\C)C(=O)N1CCN(Cc2ccccc2)CC1)C(C)C)C(C)(C)C)C(C)(C)c1cc(C)cc(C)c1` [Example 14, N,β,β,3,5-Pentamethyl-L-phenylalanyl-N^1-[(1S,2E)-4-(4-benzylpiperazin-1-yl)-1-isopropyl-3-methyl-4-oxobut-2-enyl]-N^1,3-dimethyl-L-valinamide]: in experiment [1], the “Tubulin Polym. % inhibition at 0.3 uM” value is given as 51(5) %. The IC50 – broadly, the concentration at which inhibition is half-maximal – worked out at 1.65 µM with KBV1 (Homo sapiens, KB-V1, 72 h); 0.135 µM with KB85 (72 h); 0.045 µM in the experiment on KB cells (Homo sapiens, KB, 72 h).
The like results for `CN[C@@H](C(=O)N[C@H](C(=O)N(C)[C@H](/C=C(\C)C(=O)O)C(C)C)C(C)(C)C)C1(C)CCCc2ccccc21` (single isomer, unassigned) [Example 60] were, in that order, 94%, 0.427 µM, 0.017 µM and 0.0091 µM.
Consider `CN[C@H](C(=O)N[C@H](C(=O)N(C)[C@H](/C=C/P(=O)(OC)OC)C(C)C)C(C)(C)C)C(C)(C)c1ccccc1` [Example 68, N,β,β-trimethyl-L-phenylalanyl-N^1-[(1S,2E)-3-(dimethoxyphosphoryl)-1-isopropylprop-2-enyl]-N^1,3-dimethyl-L-valinamide], for which the “Tubulin Polym. % inhibition at 0.3 uM” value in experiment [1] was 45%. This compound also had an inhibition at 3 µM with KBV1 (Homo sapiens) of 8%. In addition, the IC50 was 2.08 µM in the experiment with KB85 (72 h) and 1.98 µM in the experiment on KB cells (Homo sapiens, KB, 72 h).
In the case of `CCOS(=O)(=O)/C(C)=C/[C@H](C(C)C)N(C)C(=O)[C@@H](NC(=O)[C@@H](NC)C(C)(C)c1ccccc1)C(C)(C)C` [Example 65, N,β,β-trimethyl-L-phenylalanyl-N^1-[(1S,2E)-3-(ethoxysulfonyl)-1-isopropylbut-2-enyl]-N^1,3-dimethyl-L-valinamide], the “Tubulin Polym. % inhibition at 0.3 uM” value in experiment [1] is 44%. The inhibition at 3 µM with KBV1 (Homo sapiens) turned out to be 0%; in the experiment on KB85, 1%; in the experiment with KB cells (Homo sapiens, 72 h), 11%.
In the case of “N,β,β-trimethyl-L-phenylalanyl-N^1-[(1S,2E)-1-isopropyl-4-((2S)-2-{(1R,2R)-1-methoxy-2-methyl-3-[(4R,5S)-4-methyl-2-oxo-5-phenyl-1,3-oxazolidin-3-yl]-3-oxopropyl}pyrrolidin-1-yl)-3-methyl-4-oxovalinamide [Example 32]”, the “Tubulin Polym. % inhibition at 0.3 uM” value in experiment [1] is reported as 99(2) %. In addition, the concentration for half-maximal inhibition (IC50) was determined as 0.636 µM in the experiment on KBV1, 0.045 µM in the experiment on KB85 and 0.012 µM in the experiment with KB cells.
In the case of `CN[C@H](C(=O)N[C@H](C(=O)N(C)[C@H](/C=C(\C)C(=O)N1CCOCC1)C(C)C)C(C)(C)C)C(C)(C)c1cc(C)cc(C)c1` [Example 3, N,β,β,3,5-Pentamethyl-L-phenylalanyl-N^1-[(1S,2E)-1-isopropyl-3-methyl-4-morpholin-4-yl-4-oxobut-2-enyl]-N^1,3-dimethyl-L-valinamide], in experiment [1], the “Tubulin Polym. % inhibition at 0.3 uM” value amounted to 51%. Further, the IC50 in the experiment on KBV1 (Homo sapiens, KB-V1, 72 h) was 1.76 µM; with KB85 (72 h), 0.176 µM; with KB cells (Homo sapiens, KB, 72 h) it was 0.07 µM.
As for `CN[C@H](C(=O)N[C@H](C(=O)N(C)[C@H](/C=C(\C)C(O)c1nccs1)C(C)C)C(C)(C)C)C(C)(C)c1ccccc1` (stereo partly drawn) [Example 77, N,β,β-trimethyl-L-phenylalanyl-N-1-[(1S,2E)-4-hydroxy-1-isopropyl-3-methyl-4-(1,3-thiazol-2-yl)but-2-enyl]-N-1-,3-dimethyl-L-valinamide], the “Tubulin Polym. % inhibition at 0.3 uM” value in experiment [1] is given as 97%. Also, the IC50 in the experiment on KBV1 was 0.364 µM; in the experiment on KB85 it was 0.019 µM; in the experiment on KB cells it was 0.013 µM.
For `CN[C@H](C(=O)N[C@H](C(=O)N(C)[C@H](/C=C(\C)C(=O)N1CCC[C@H]1[C@H](OC)[C@@H](C)C(=O)N[C@@H](Cc1ccccc1)c1nccs1)C(C)C)C(C)(C)C)C(C)(C)C1CCCCC1` [Example 44, 3-cyclohexyl-N-methyl-L-valyl-N^1-{(1S,2E)-1-isopropyl-4-[(2S)-2-((1R,2R)-1methoxy-2-methyl-3-oxo-3-{[(1S)-2-phenyl-1-(1,3-thiazol-2-yl)ethyl]amino}propyl)pyrrolidin-1-yl]-3-methyl-4-oxobut-2-enyl}-N^1,3-dimethyl-L-valinamide], the “Tubulin Polym. % inhibition at 0.3 uM” value in experiment [1] is on record as 83%. Also, the half-inhibitory concentration (IC50) is 0.475 µM in the experiment with KBV1 (Homo sapiens, KB-V1, 72 h); 0.0062 µM with KB85 (72 h); 0.0015 µM in the experiment with KB cells (Homo sapiens, KB, 72 h).
Regarding `CN[C@H](C(=O)N[C@H](C(=O)N(C)[C@H](/C=C(\C)C(=O)c1ncc[nH]1)C(C)C)C(C)(C)C)C(C)(C)c1ccccc1` [Example 88, (2S)-N-[(1S,2E)-4-(1H-imidazol-2-yl)-1-isopropyl-3-methyl-4-oxobut-2-enyl]- -trimethyl-2-{[(2S)-3-methyl-2-(methylamino)-3-phenylbutanoyl]amino}butanamide], the “Tubulin Polym. % inhibition at 0.3 uM” value in experiment [1] is 91%. The “KBV1 % inhibition @ 3000 nM” value in the experiment on KBV1 (3000 nM) was determined as 0%. Moreover, the results for the IC50 in the experiment on KB85 and in the experiment with KB cells were 1.36 µM and 0.218 µM, respectively.
Take `CN[C@H](C(=O)N[C@H](C(=O)N(C)[C@H](/C=C(\C)C(=O)N1CCN(C)CC1)C(C)C)C(C)(C)C)C(C)(C)c1ccc(C)c(C)c1` [Example 7, N,β,β,3,4-Pentamethyl-L-phenylalanyl-N^1-[(1S,2E)-1-isopropyl-3-methyl-4-(4-methylpiperazin-1-yl)-4-oxobut-2-enyl]-N^1,3-dimethyl-L-valinamide]: the “Tubulin Polym. % inhibition at 0.3 uM” value in experiment [1] amounted to 32%. Besides, the half-maximal inhibitory concentration (IC50) in the experiment with KBV1 (Homo sapiens, KB-V1, 72 h) came out at 2.19 µM; in the experiment with KB85 (72 h), 0.068 µM; in the experiment with KB cells (Homo sapiens, KB, 72 h), 0.047 µM.
Turning to `CN[C@H](C(=O)N[C@H](C(=O)N(C)[C@H](/C=C(\C)C(=O)O)C(C)C)C(C)(C)C)c1ccccc1` [Example 57, (2E,4S)-2,5-dimethyl-4-(methyl{3-methyl-N-[(2S)-2-(methylamino)-2-phenylethanoyl]-L-valyl}amino)-2-hexenoic acid], the “Tubulin Polym. % inhibition at 0.3 uM” value in experiment [1] is given as 75%. In addition, testing at 3 µM in the experiment on KBV1 (Homo sapiens) gave an inhibition of 7%. The IC50 with KB85 (72 h) worked out at 2.61 µM; in the experiment with KB cells (Homo sapiens, KB, 72 h), 1.76 µM.
